{"source": "patent EP0942911B1", "about": "“BENZOPYRANOPYRROLE AND BENZOPYRANOPYRIDINE ALPHA-1 ADRENERGIC COMPOUNDS” (Abbott Laboratories, priority 1996, dated 1998)", "note": "Where a name gives a salt, the structure may show the parent alone.", "data": [{"target": "T1, α-1B adrenoreceptor (Rattus norvegicus, UniProt P15823)", "T1 construct": "from tissue; host or cells: rat spleen", "T1 sequence (P15823 1-515)": "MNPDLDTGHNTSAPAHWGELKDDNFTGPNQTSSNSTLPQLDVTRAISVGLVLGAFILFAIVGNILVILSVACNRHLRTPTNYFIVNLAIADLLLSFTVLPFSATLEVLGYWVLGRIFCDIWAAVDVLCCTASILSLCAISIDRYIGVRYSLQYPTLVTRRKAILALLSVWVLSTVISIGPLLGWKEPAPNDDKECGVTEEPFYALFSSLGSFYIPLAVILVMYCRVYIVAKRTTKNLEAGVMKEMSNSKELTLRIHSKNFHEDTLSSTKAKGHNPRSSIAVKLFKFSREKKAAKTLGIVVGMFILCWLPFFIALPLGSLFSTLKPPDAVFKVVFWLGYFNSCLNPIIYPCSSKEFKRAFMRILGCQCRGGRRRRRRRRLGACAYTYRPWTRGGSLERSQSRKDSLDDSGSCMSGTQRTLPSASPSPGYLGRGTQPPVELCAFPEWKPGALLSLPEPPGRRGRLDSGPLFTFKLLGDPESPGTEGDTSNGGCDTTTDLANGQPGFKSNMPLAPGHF", "experiment": "cell-based", "details": "phenylephrine-induced contraction; Schild plot", "in_short": "(§1)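 Phenylephrine dose-response curves for contraction were repeated against increasing test-agent concentrations. pA2 was derived by Schild plot [[…] vs log molarity of test agent].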", "values": [{"smiles": "COc1cnc2sc3c(=O)n(CCCCN4CC5COc6cccc(OC)c6[C@@H]5C4)c(=O)[nH]c3c2n1.Cl", "note": "(stereo in doubt) [Example 43, 3-[4-((3aS,9bR)-trans-9-Methoxy-1,2,3,3a,4,9b-hexahydro-[1]-benzopyrano[3,4-c]pyrrol-2-yl)butyl]-8-methoxy-pyrazino[2',3':4,5]thieno[3,2-d]pyrimidine-2,4(1H,3H)-dione hydrochloride]", "In Vitro Characterization (pA2) Rat Spleen": 7.66}, {"smiles": "COc1cc2nc(N3CCN(C(=O)C4COc5ccccc5O4)CC3)nc(N)c2cc1OC", "note": "(centres unmarked) [Doxazosin, doxazosin, reference compound]", "In Vitro Characterization (pA2) Rat Spleen": 9.51}]}, {"target": "T1, α-1B adrenoreceptor", "experiment": "cell-based", "details": "phenylephrine-induced contraction; Schild plot; read-out: In Vitro Characterization (pA2) Rat Spleen (converted)", "in_short": "as §1", "units": {"Kb": "µM"}, "values": [{"smiles": "COc1cccc2c1[C@@H]1CN(CCCCn3c(=O)[nH]c4c(sc5c(OC)ccnc54)c3=O)C[C@@H]1CO2", "note": "[Example 18, 3-[4-((3aR,9bR)-cis-9-Methoxy-1,2,3,3a,4,9b-hexahydro[1]-benzopyrano[3,4-c]pyrrol-2-yl)butyl]-6-methoxy-pyrido[2',3':4,5]thieno[3,2-d]pyrimidine-2,4(1H,3H)-dione dihydrochloride]", "Kb": 0.0195}, {"smiles": "COc1cccc2c1[C@@H]1CN(CCCCn3c(=O)[nH]c4c(sc5ccncc54)c3=O)C[C@H]1CO2", "note": "[Example 41, 3-[4-((3aS,9bR)-trans-9-Methoxy-1,2,3,3a,4,9b-hexahydro-[1]-benzopyrano[3,4-c]pyrrol-2-yl)butyl]-pyrido[3',4':4,5]thieno[3,2-d]pyrimidine-2,4(1H,3H)-dione dihydrochloride]", "Kb": 0.00398}, {"smiles": "COc1cccc2c1[C@@H]1CN(CCCCn3c(=O)[nH]c4c(sc5c(OC)ccnc54)c3=O)C[C@H]1CO2", "note": "[Example 17, 3-[4-((3aS,9bR)-trans-9-Methoxy-1,2,3,3a,4,9b-hexahydro-[1]-benzopyrano[3,4-c]pyrrol-2-yl)butyl]-6-methoxy-pyrido[2',3':4,5]thieno[3,2-d]pyrimidine-2,4(1H,3H)-dione dihydrochloride]", "Kb": 0.011}, {"smiles": "COc1ccc2sc3c(=O)n(CCCCN4C[C@@H]5COc6cccc(OC)c6[C@@H]5C4)c(=O)[nH]c3c2n1", "note": "[Example 30, 3-[4-((3aR,9bR)-cis-9-Methoxy-1,2,3,3a,4,9b-hexahydro-[1]-benzopyrano[3,4-c]pyrrol-2-yl)butyl]-8-methoxy-pyrido[2',3':4,5]thieno[3,2-d]pyrimidine-2,4(1H,3H)-dione hydrochloride]", "Kb": 0.0214}, {"smiles": "COc1cccc2c1[C@@H]1CN(CCCCn3c(=O)[nH]c4c(sc5cnccc54)c3=O)C[C@H]1CO2", "note": "[Example 42, 3-[4-((3aS,9bR)-trans-9-Methoxy-1,2,3,3a,4,9b-hexahydro-[1]-benzopyrano[3,4-c]pyrrol-2-yl)butyl]-pyrido[4',3':4,5]thieno[3,2-d]pyrimidine-2,4(1H,3H)-dione dihydrochloride]", "Kb": 0.00275}, {"smiles": "COc1cccc2c1[C@@H]1CN(CCCCn3c(=O)[nH]c4c(sc5cnccc54)c3=O)C[C@@H]1CO2", "note": "[Example 29, 3-[4-((3aR,9bR)-cis-9-Methoxy-1,2,3,3a,4,9b-hexahydro-[1]-benzopyrano[3,4-c]pyrrol-2-yl)butyl]-pyrido[4',3':4,5]thieno[3,2-d]pyrimidine-2,4(1H,3H)-dione dihydrochloride]", "Kb": 0.0123}, {"smiles": "COc1cccc2c1[C@@H]1CN(CCCCn3c(=O)[nH]c4c(sc5ccncc54)c3=O)C[C@@H]1CO2", "note": "[Example 28, 3-[4-((3aR,9bR)-cis-9-Methoxy-1,2,3,3a,4,9b-hexahydro-[1]-benzopyrano[3,4-c]pyrrol-2-yl)butyl]-pyrido[3',4':4,5]thieno[3,2-d]pyrimidine-2,4(1H,3H)-dione dihydrochloride]", "Kb": 0.00437}, {"smiles": "COc1cccc2c1[C@@H]1CN(CCCCn3c(=O)[nH]c4c(sc5ccc(OC(C)C)nc54)c3=O)C[C@H]1CO2", "note": "[Example 51, 3-[4-((3aS,9bR)-trans-9-Methoxy-1,2,3,3a,4,9b-hexahydro-[1]-benzopyrano[3,4-c]pyrrol-2-yl)butyl]-8-isopropoxy-pyrido[2',3':4,5]thieno[3,2-d]pyrimidine-2,4(1H,3H)-dione hydrochloride]", "Kb": 0.0339}, {"smiles": "COc1cccc2c1[C@@H]1CN(CCCCn3c(=O)[nH]c4c(sc5ccc(Cl)nc54)c3=O)C[C@@H]1CO2", "note": "[Example 37, 3-[4-((3aR,9bR)-cis-9-Methoxy-1,2,3,3a,4,9b-hexahydro-[1]-benzopyrano[3,4-c]pyrrol-2-yl)butyl]-8-chloro-pyrido[2',3':4,5]thieno[3,2-d]pyrimidine-2,4(1H,3H)-dione hydrochloride]", "Kb": 0.00933}, {"smiles": "COc1cccc2c1[C@@H]1CN(CCCCn3c(=O)[nH]c4c(sc5c(Cl)nccc54)c3=O)C[C@@H]1CO2", "note": "[Example 53, 3-[4-((3aR,9bR)-cis-9-Methoxy-1,2,3,3a,4,9b-hexahydro-[1]-benzopyrano[3,4-c]pyrrol-2-yl)butyl]-6-chloro-pyrido[4',3':4,5]thieno[3,2-d]pyrimidine-2,4(1H,3H)-dione]", "Kb": 0.0631}, {"smiles": "COc1cccc2c1[C@@H]1CN(CCCCn3c(=O)[nH]c4c(sc5ccnc(Cl)c54)c3=O)C[C@@H]1CO2", "note": "[Example 48, 3-[4-((3aR,9bR)-cis-9-Methoxy-1,2,3,3a,4,9b-hexahydro-[1]-benzopyrano[3,4-c]pyrrol-2-yl)butyl]-9-chloro-pyrido[3',4';4,5]thieno[3,2-d]pyrimidine-2,4(1H,3H)-dione hydrochloride]", "Kb": 0.0398}, {"smiles": "COc1cccc2c1[C@@H]1CN(CCCCn3c(=O)[nH]c4c(sc5nc(Cl)ccc54)c3=O)C[C@H]1CO2", "note": "[Example 47, 3-[4-((3aS,9bR)-trans-9-Methoxy-1,2,3,3a,4,9b-hexahydro-[1]-benzopyrano[3,4-c]pyrrol-2-yl)butyl]-7-chloro-pyrido[3',2':4,5]thieno[3,2-d]pyrimidine-2,4(1H,3H)-dione hydrochloride]", "Kb": 0.0112}, {"smiles": "COc1cc2[nH]c(=O)n(CCCCN3C[C@@H]4COc5ccccc5[C@@H]4C3)c(=O)c2cc1OC", "note": "(racemic) [Example 81, 3-[4-((±1-cis-1,2,3,3a,4,9b-hexahydro-[1]-benzopyrano[3,4-c]pyrrol-2-yl)butyl]-6,7-dimethoxy-quinazoline-2,4(1H,3H)-dione hydrochloride]", "Kb": 0.0389}, {"smiles": "O=c1[nH]c2c(sc3cccnc32)c(=O)n1CCCCN1C[C@@H]2COc3ccccc3[C@@H]2C1", "note": "(racemic) [Example 70, 3-[4-((±)-cis-1,2,3,3a,4,9b-hexahydro-[1]-benzopyrano[3,4-c]pyrrol-2-yl)butyl]-pyrido[2',3':4,5]thieno[3,2-d]pyrimidine-2,4(1H,3H)-dione dihydrochloride]", "Kb": 0.0871}, {"smiles": "COc1cccc2c1[C@@H]1CN(CCCCn3c(=O)[nH]c4c(sc5ncccc54)c3=O)C[C@@H]1CO2", "note": "[Example 34, 3-[4-((3aR,9bR)-cis-9-Methoxy-1,2,3,3a,4,9b-hexahydro-[1]-benzopyrano[3,4-c]pyrrol-2-yl)butyl]-pyrido[3',2':4,5]thieno[3,2-d]pyrimidine-2,4(1H,3H)-dione hydrochloride]", "Kb": 0.00759}, {"smiles": "COc1ccc2c(n1)sc1c(=O)n(CCCCN3C[C@H]4COc5cccc(OC)c5[C@@H]4C3)c(=O)[nH]c12", "note": "[Example 46, 3-[4-((3aS,9bR)-trans-9-Methoxy-1,2,3,3a,4,9b-hexahydro-[1]-benzopyrano[3,4-c]pyrrol-2-yl)butyl]-7-methoxy-pyrido[3',2':4,5]thieno[3,2-d]pyrimidine-2,4(1H,3H)-dione hydrochloride]", "Kb": 0.00759}, {"smiles": "COc1cccc2c1[C@@H]1CN(CCCCn3c(=O)[nH]c4c(sc5c(Cl)nccc54)c3=O)C[C@H]1CO2", "note": "[Example 54, 3-[4-((3aS,9bR)-trans-9-Methoxy-1,2,3,3a,4,9b-hexahydro-[1]-benzopyrano[3,4-c]pyrrol-2-yl)butyl]-6-chloro-pyrido[4',3':4,5]thieno[3,2-d]pyrimidine-2,4(1H,3H)-dione]", "Kb": 0.049}, {"smiles": "COc1cccc2c1[C@@H]1CN(CCCCn3c(=O)[nH]c4c(sc5ccnc(OC)c54)c3=O)C[C@H]1CO2", "note": "[Example 49, 3-[4-((3aS,9bR)-trans-9-Methoxy-1,2,3,3a,4,9b-hexahydro-[1]-benzopyrano[3,4-c]pyrrol-2-yl)butyl]-9-methoxy-pyrido[3',4':4,5]thieno[3,2-d]pyrimidine-2,4(1H,3H)-dione fumarate]", "Kb": 0.00724}, {"smiles": "COc1cccc2c1[C@@H]1CN(CCCCn3c(=O)[nH]c4c(sc5nccc(OC)c54)c3=O)C[C@@H]1CO2", "note": "[Example 36, 3-[4-((3aR,9bR)-cis-9-Methoxy-1,2,3,3a,4,9b-hexahydro-[1]-benzopyrano[3,4-c]pyrrol-2-yl)butyl]-9-methoxy-pyrido[3',2':4,5]thieno[3,2-d]pyrimidine-2,4(1H,3H)-dione hydrochloride]", "Kb": 0.00813}, {"smiles": "COc1cccc2c1[C@@H]1CN(CCCCn3c(=O)[nH]c4c(sc5ncccc54)c3=O)C[C@H]1CO2", "note": "[Example 44, 3-[4-((3aS,9bR)-trans-9-Methoxy-1,2,3,3a,4,9b-hexahydro-[1]-benzopyrano[3,4-c]pyrrol-2-yl)butyl]-pyrido[3',2':4,5]thieno[3,2-d]pyrimidine-2,4(1H,3H)-dione hydrochloride]", "Kb": 0.00447}, {"smiles": "COc1cccc2c1[C@@H]1CN(CCCCn3c(=O)[nH]c4c(sc5nc(C)ccc54)c3=O)C[C@H]1CO2", "note": "[Example 45, 3-[4-((3aS,9bR)-trans-9-Methoxy-1,2,3,3a,4,9b-hexahydro-[1]-benzopyrano[3,4-c]pyrrol-2-yl)butyl]-7-methyl-pyrido[3',2':4,5]thieno[3,2-d]pyrimidine-2,4(1H,3H)-dione hydrochloride]", "Kb": 0.00129}]}]}
